Reference: PMC6430017, “Structural and chemical insights into the covalent-allosteric inhibition of the protein kinase Akt” (Chemical Science, 2019)
Read-outs that look alike come from different tables or passages of the source.

How the values were obtained:
[1] = tested on: ZR-75-1; experiment: Cell viability assay (CellTiter-Glo); type: cell-based; details: Homo sapiens, read-out: Cell viability assay EC50
Description: Cell Culture and Viability Assay
(§1) analysis, cells were plated on day 0 into white 384-well cell culture plates (Greiner Bio-One) using a
(§2) Multidrop reagent dispenser (Thermo) at cell numbers that ensure linear and optimal luminescent
(§3) signal intensity (AN3-CA: 800 cells/well; BT-474: 400 cells/well; Dan-G: 400 cells/well; HPAF-II: 400
(§4) cells/well). Then the cells were incubated for 24 h in a humidified atmosphere at 37 °C/5 % CO2. The
(§5) cells were treated with inhibitors in serial dilutions ranging from 30 µM down to 0.1 nM using an Echo
(§6) 520 acoustic liquid handler (Labcyte Inc.). Cell viability was analysed on day 5 using the CellTiter-Glo
(§7) assay (Promega) as per manufacturer’s instructions. Luminescence signal was recorded by an EnVision
(§8) Multilabel 2104 Plate Reader (PerkinElmer) with 500 ms integration time. All data were normalized to
(§9) the plate positive control (30 µM staurosporine) and negative control (DMSO). Finally, the data was
(§10) processed with the Quattro Software Suite using a four parameter logistic model. As a quality control,
(§11) the Z’-factor was calculated from 16 positive and negative control values. Only assay results showing
(§12) a Z’-factor ≥ 0.5 were used for further analysis. All experimental points were measured in duplicates
(§13) for each plate and were replicated in at least three times.

[2] = tested on: KU-19-19; experiment: Cell viability assay (CellTiter-Glo); type: cell-based; details: Homo sapiens, read-out: Cell viability assay EC50
Description: Cell Culture and Viability Assay
as §1, §2, §3, §4, §5, §6, §7, §8, §9, §10, §11, §12, §13

[3] = tested on: T47D; experiment: Cell viability assay (CellTiter-Glo); type: cell-based; details: Homo sapiens, 120 h, read-out: Cell viability assay EC50
Description: Cell Culture and Viability Assay
as §1, §2, §3, §4, §5, §6, §7, §8, §9, §10, §11, §12, §13

[4] = tested on: MCF-7; experiment: Cell viability assay (CellTiter-Glo); type: cell-based; details: Homo sapiens, MCF7, 120 h, read-out: Cell viability assay EC50
Description: Cell Culture and Viability Assay
as §1, §2, §3, §4, §5, §6, §7, §8, §9, §10, §11, §12, §13

[5] = tested on: BT-474; experiment: Cell viability assay (CellTiter-Glo); type: cell-based; details: Homo sapiens, read-out: Cell viability assay EC50
Description: Cell Culture and Viability Assay
as §1, §2, §3, §4, §5, §6, §7, §8, §9, §10, §11, §12, §13

[6] = target: T1, full-length Akt (Akt^wt) (Homo sapiens, UniProt P31749); experiment: Kinetic characterization by time-dependent IC50 measurements; type: biochemical; details: from time-dependent IC50
T1 sequence (P31749 whole entry): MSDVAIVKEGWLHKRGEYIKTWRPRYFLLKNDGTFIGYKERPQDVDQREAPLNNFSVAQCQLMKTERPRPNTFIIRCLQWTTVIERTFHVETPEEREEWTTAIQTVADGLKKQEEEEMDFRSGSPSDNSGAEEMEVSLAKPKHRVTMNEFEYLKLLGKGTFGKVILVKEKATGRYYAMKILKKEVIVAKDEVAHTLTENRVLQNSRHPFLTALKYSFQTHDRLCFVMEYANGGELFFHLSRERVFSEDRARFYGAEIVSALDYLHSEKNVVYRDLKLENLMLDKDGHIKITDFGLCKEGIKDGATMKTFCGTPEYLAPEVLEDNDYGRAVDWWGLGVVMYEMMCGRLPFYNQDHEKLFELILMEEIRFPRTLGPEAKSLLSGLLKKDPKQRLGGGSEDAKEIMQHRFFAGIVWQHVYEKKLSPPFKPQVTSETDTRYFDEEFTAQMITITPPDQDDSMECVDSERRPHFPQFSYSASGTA
Description: (§14) The biochemical inhibitory activity (IC50) was determined with the HTRF KinEASE assay from Cisbio as
(§15) previously described.1 All reagents for HTRF experiments were purchased from Cisbio Bioassays,
(§16) France. The measurements were analyzed using the Quattro Software Suite for IC50-determination.
(§17) Time-dependent IC50-measurements were performed as described. Briefly, IC50 values were
(§18) determined for twelve different incubation times and afterwards plotted versus accordingly. Data was
(§19) analyzed according to literature procedure.2

[7] = target: T1, full-length Akt (Akt^wt); experiment: HTRF KinEASE activity-based assay, IC50 determination; type: biochemical; details: for IC50: HTRF KinEASE
Description: as §14, §15, §16, §17, §18, §19

[8] = tested on: AN3CA; experiment: Cell viability assay (CellTiter-Glo); type: cell-based; details: Homo sapiens, AN3-CA, 120 h, read-out: Cell viability assay EC50
Description: Cell Culture and Viability Assay
as §1, §2, §3, §4, §5, §6, §7, §8, §9, §10, §11, §12, §13

[9] = Phase I metabolic stability assay; details: human
Description: (§20) For this purpose, we used a microsomal stability assay that is a good predictor for phase I metabolic stability.[50]
(§21) Metabolic stability under oxidative conditions was determined by LCMS-based measuring of
(§22) degradation of compounds at 3 µM in human and murine liver microsomes over 60 minutes at 37 °C
(§23) Calculating the compound half-life t1/2, the in vitro intrinsic clearance CLint is

[10] = in vitro; details: human, microsomes
Description: as §20, §21, §22, §23

[11] = 120 h, KU-19-19 (bladder), day 5

SMILES | EC50 ([3]; T47D (breast), day 5) | EC50 ([4]; MCF-7 (breast), day 5) | EC50 ([5]; 120 h, BT-474 (breast), day 5) | Ki [6] | kinact [6] | kinact/KI [6] | IC50 [7] | half-life at 1 h, 3 µM ([9]; liver microsomes) | microsomal CLint at 3 µM ([9]; liver microsomes) | EC50 ([1]; 120 h, ZR-75-1 (breast), day 5) | EC50 [2, 11] | EC50 ([8]; AN3CA (endometrium), day 5) | also measured
C=CC(=O)Nc1cc2c(cc1Cl)[nH]c(=O)n2C1CCN(Cc2ccc(-c3nc4cc[nH]c(=O)c4cc3-c3ccccc3)cc2)CC1 [24a] | 25 ± 7 nM | 138 ± 81 nM | 259 ± 68 nM | – | – | – | 1.2 ± 0.3 nM | – | – | 2 nM | 2310 ± 908 nM | 159 ± 70 nM | half-life at 1 h, 3 µM [10]: 87 min; microsomal CLint at 3 µM [10]: 5 µL/min/mg
C=CC(=O)Nc1ccc2[nH]c(=O)n(C3CCN(Cc4ccc(-c5nc6cc[nH]c(=O)c6cc5-c5ccccc5)cc4)CC3)c2c1 [compound 1, borussertib] | – | – | – | – | – | – | – | – | – | – | – | – | EC50 ([2]; KU-19-19, 120 h): 7770 ± 641 nM; EC50 [4]: 277 ± 90 nM; EC50 ([5]; BT-474, 120 h): 373 ± 54 nM; half-life at 1 h, 3 µM ([9]; microsomes): 99 min; microsomal CLint at 3 µM ([9]; microsomes): 5 µL/min/mg
CC(C)NC[C@@H](C(=O)N1CCN(c2ncnc3c2[C@H](C)C[C@H]3O)CC1)c1ccc(Cl)cc1 [Ipatasertib, reference compound] | – | – | – | – | – | – | – | 39 min | 12 µL/min/mg | – | – | – | EC50 ([1]; ZR-75-1, 120 h): 219 ± 83 nM; EC50 ([3]; T47D): 443 ± 6 nM; EC50 [4]: 5040 ± 1830 nM; EC50 ([5]; BT-474, 120 h): 2370 ± 745 nM; EC50 [8]: 925 ± 457 nM
C=CC(=O)Nc1ccc(C(=O)NC2CCN(Cc3ccc(-c4nc5cc[nH]c(=O)c5cc4-c4ccccc4)cc3)CC2)cc1 [30c] | 1360 ± 454 nM | 2840 ± 685 nM | 5210 ± 1890 nM | 362 ± 74 nM | 0.0007 s⁻¹ | 2000 ± 1000 M⁻¹ s⁻¹ | 285 ± 65 nM | – | – | 151 ± 47 nM | – | 3470 ± 1690 nM | –
C=CC(=O)Nc1ccc(N2CCN(Cc3ccc(-c4nc5cc[nH]c(=O)c5cc4-c4ccccc4)cc3)CC2)cc1 [compound 31] | 832 ± 81 nM | 1220 ± 58 nM | 4620 ± 1060 nM | – | – | – | – | – | – | 116 ± 16 nM | – | 3610 ± 1290 nM | –
CN(C)C/C=C/C(=O)Nc1ccc2[nH]c(=O)n(C3CCN(Cc4ccc(-c5nc6cc[nH]c(=O)c6cc5-c5ccccc5)cc4)CC3)c2c1 [24c] | 2110 ± 49 nM | – | – | 33 ± 2.4 nM | 0.000833 s⁻¹ | 25000 ± 5000 M⁻¹ s⁻¹ | 18.1 ± 4.9 nM | – | – | 427 ± 23 nM | > 30000 nM | – | fold loss in inhibitory activity (IC50) compared to 1 [7]: 20 fold

Continued by falling EC50 ([5]; 120 h, BT-474 (breast), day 5), values first:

EC50 ([3]; T47D (breast), day 5) | EC50 ([4]; MCF-7 (breast), day 5) | EC50 ([5]; 120 h, BT-474 (breast), day 5) | Ki [6] | kinact [6] | kinact/KI [6] | IC50 [7] | half-life at 1 h, 3 µM ([9]; liver microsomes) | microsomal CLint at 3 µM ([9]; liver microsomes) | SMILES | EC50 ([1]; 120 h, ZR-75-1 (breast), day 5) | EC50 [2, 11] | EC50 ([8]; AN3CA (endometrium), day 5) | also measured
1900 ± 578 nM | 2200 ± 125 nM | 4020 ± 912 nM | 327 ± 27 nM | 0.00118 s⁻¹ | 4000 ± 1000 M⁻¹ s⁻¹ | 192 ± 45 nM | – | – | C=CC(=O)Nc1cccc(CNC2CCN(Cc3ccc(-c4nc5cc[nH]c(=O)c5cc4-c4ccccc4)cc3)CC2)c1 [compound 32] | 384 ± 62 nM | 6760 ± 1460 nM | 3290 ± 298 nM | –
41 ± 19 nM | 1020 ± 621 nM | 2270 ± 700 nM | 27.2 ± 4.2 nM | 0.0023 s⁻¹ | 85000 ± 18000 M⁻¹ s⁻¹ | 10.8 ± 2.5 nM | – | – | C=CC(=O)Nc1ccccc1C(=O)NC1CCN(Cc2ccc(-c3nc4cc[nH]c(=O)c4cc3-c3ccccc3)cc2)CC1 [30a] | 22 ± 7 nM | 5540 ± 1510 nM | 1330 ± 60 nM | –
546 ± 87 nM | 2440 ± 1020 nM | 1960 ± 391 nM | 98.6 ± 10 nM | 0.00142 s⁻¹ | 14000 ± 2000 M⁻¹ s⁻¹ | 52.8 ± 16.3 nM | – | – | C=CC(=O)Nc1ccc(C(=O)NC2CCN(Cc3ccc(-c4nc5cc[nH]c(=O)c5cc4-c4ccccc4)cc3)CC2)c(F)c1 [30d] | 73 ± 25 nM | 6070 ± 1100 nM | 1310 ± 158 nM | –
– | – | 1680 ± 316 nM | – | – | – | – | 347 min | 1 µL/min/mg | NC1(c2ccc(-c3nc4ccn5c(=O)[nH]nc5c4cc3-c3ccccc3)cc2)CCC1 [MK-2206, reference compound] | 63 ± 21 nM | 7050 ± 421 nM | – | –
– | 555 nM | 1600 ± 450 nM | – | – | – | – | 33 min | 14 µL/min/mg | NC1(C(=O)N[C@@H](CCO)c2ccc(Cl)cc2)CCN(c2ncnc3[nH]ccc23)CC1 [Capivasertib, reference compound] | – | – | – | –
183 ± 52 nM | 1190 ± 518 nM | 1100 ± 212 nM | 39.3 ± 6.6 nM | 0.00147 s⁻¹ | 38000 ± 7000 M⁻¹ s⁻¹ | 14 ± 6.1 nM | 39 min | 12 µL/min/mg | C=CC(=O)Nc1ccc(C(=O)NC2CCN(Cc3ccc(-c4nc5cc[nH]c(=O)c5cc4-c4ccccc4)cc3)CC2)s1 [30f] | 33 ± 9 nM | 3060 ± 848 nM | 879 ± 223 nM | –
127 ± 40 nM | 153 ± 9 nM | 623 ± 134 nM | – | – | – | – | – | – | COc1cccc2c1C(=O)c1c(O)c3c(c(O)c1C2=O)C[C@@](O)(C(=O)CO)C[C@@H]3O[C@H]1C[C@H](N)[C@H](O)[C@H](C)O1 [Doxorubicin, reference compound] | 100 ± 26 nM | 72 ± 8 nM | 30 ± 9 nM | –
179 ± 30 nM | 224 ± 88 nM | 621 ± 85 nM | 7.6 ± 1.1 nM | 0.0013 s⁻¹ | 168000 ± 25000 M⁻¹ s⁻¹ | 3.7 ± 0.7 nM | 39 min | 12 µL/min/mg | C=CC(=O)Nc1cc(Br)cc(C(=O)NC2CCN(Cc3ccc(-c4nc5cc[nH]c(=O)c5cc4-c4ccccc4)cc3)CC2)c1 [30e] | 10 ± 3 nM | 6440 ± 1240 nM | 568 ± 106 nM | –
